What follows are compounds tested against T1, hCB1 (Homo sapiens, UniProt P21554) (assay: Agonist-induced GTP binding (GTPγ35S) assay at CB1, Example 8). Settings: IC50 at CB1, determined as described in Example 8; read-out: IC50.
T1 construct: made in house; host or cells: Sf9 insect cells (baculovirus), P2 membranes
Type: biochemical
How it was run: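 Membranes from Sf9 cells co-expressing hCB1 and heterotrimeric G-protein (10 μg protein) in Tris pH 7.4 buffer with 5 μM GDP. Test compounds (10^−10–10^−5 M) competed against 1 nM CP55,940 with […] GTPγ35S, 60 min at room temperature. Filter-bound radioactivity by scintillation, expressed as percent above basal.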

T1 sequence (P21554 whole entry): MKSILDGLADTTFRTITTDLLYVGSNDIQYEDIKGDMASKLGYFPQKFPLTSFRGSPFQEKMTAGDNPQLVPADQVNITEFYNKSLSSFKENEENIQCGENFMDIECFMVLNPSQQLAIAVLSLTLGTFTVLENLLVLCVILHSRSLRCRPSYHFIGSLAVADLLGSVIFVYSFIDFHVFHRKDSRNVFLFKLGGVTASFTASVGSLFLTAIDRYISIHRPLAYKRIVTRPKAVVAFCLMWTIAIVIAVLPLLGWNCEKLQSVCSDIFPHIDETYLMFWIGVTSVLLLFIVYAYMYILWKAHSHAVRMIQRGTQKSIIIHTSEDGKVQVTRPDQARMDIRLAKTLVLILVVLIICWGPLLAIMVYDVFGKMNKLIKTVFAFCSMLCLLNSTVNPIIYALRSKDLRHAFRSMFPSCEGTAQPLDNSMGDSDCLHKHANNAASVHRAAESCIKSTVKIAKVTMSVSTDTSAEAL

| IC50 | Structure (SMILES) |
| --- | --- |
| < 2000 nM | Cc1ccc(NC(=O)Nc2ccc(Cl)cc2)cc1C [Compound 437, 1-(4-chlorophenyl)-3-(3,4-dimethylphenyl)urea] |
| < 2000 nM | O=C(Nc1ccc(OC(F)F)cc1)Nc1cccc([N+](=O)[O-])c1 [Compound 568, 1-[4-(difluoromethoxy)phenyl]-3-(3-nitrophenyl)urea] |
| < 2000 nM | CC(C)Oc1cccc(NC(=O)Nc2ccc(C(C)C)cc2)c1 [Compound 574, 1-(3-isopropoxyphenyl)-3-(4-isopropylphenyl)urea] |
| < 2000 nM | CCc1ccc(NC(=O)Nc2cccc(C(=O)OC)c2)cc1 [Compound 645, methyl 3-({[(4-ethylphenyl)amino]carbonyl}amino)benzoate] |
| < 2000 nM | Cc1ccc(NC(=O)Nc2cccc(OC(C)C)c2)cc1C [Compound 687, 1-(3,4-dimethylphenyl)-3-(3-isopropoxyphenyl)urea] |
| < 2000 nM | Cc1ccc(NC(=O)Nc2ccc(C(=O)OC(C)C)cc2)cc1 [Compound 478, isopropyl 4-({[(4-methylphenyl)amino]carbonyl}amino)benzoate] |
| < 2000 nM | CC(=O)c1ccc(NC(=O)Nc2ccc(Cl)nc2)cc1 [Compound 637, 1-(4-acetylphenyl)-3-(6-chloropyridin-3-yl)urea] |
| < 2000 nM | CCOc1ccc(NC(=O)Nc2cccc(OC(C)C)c2)cc1 [Compound 550, 1-(4-ethoxyphenyl)-3-(3-isopropoxyphenyl)urea] |
| < 2000 nM | CCCCc1ccc(NC(=O)Nc2ccccc2)cc1 [Compound 294, N-(4-butylphenyl)-N′-phenylurea] |
| < 2000 nM | Cc1ccc(NC(=O)Nc2cccc(C#N)c2)cc1C [Compound 447, 1-(3-cyanophenyl)-3-(3,4-dimethylphenyl)urea] |
| < 2000 nM | CCCOc1ccc(NC(=O)Nc2ccc(F)c(F)c2)cc1 [Compound 686, 1-(3,4-difluorophenyl)-3-(4-propoxyphenyl)urea] |
| < 2000 nM | Cc1ccc(F)cc1NC(=O)Nc1ccc(OC(C)C)cc1 [Compound 698, 1-(5-fluoro-2-methylphenyl)-3-(4-isopropoxyphenyl)urea] |
| < 2000 nM | Cc1ccc(NC(=O)Nc2ccc(C)c(F)c2)cc1 [Compound 312, 1-(3-fluoro-4-methylphenyl)-3-(4-methylphenyl)urea] |
| < 2000 nM | CCOC(=O)c1ccc(NC(=O)Nc2ccc(Cl)cc2)cc1 [Compound 500, ethyl 4-({[(4-chlorophenyl)amino]carbonyl}amino)benzoate] |

More lines, now with the values behind:

| Structure (SMILES) | IC50 |
| --- | --- |
| Cc1cc(C)cc(NC(=O)Nc2cccc(OC(C)C)c2)c1 [Compound 707, 1-(3,5-dimethylphenyl)-3-(3-isopropoxyphenyl)urea] | < 2000 nM |
| CCOC(=O)c1ccc(NC(=O)Nc2cccc(C(C)=O)c2)cc1 [Compound 512, ethyl 4-({[(3-acetylphenyl)amino]carbonyl}amino)benzoate] | < 2000 nM |
| O=C(Nc1ccc(OC(F)F)cc1)Nc1ccc([N+](=O)[O-])cc1 [Compound 569, 1-[4-(difluoromethoxy)phenyl]-3-(4-nitrophenyl)urea] | < 2000 nM |
| COc1ccc(NC(=O)Nc2ccc(C(C)C)cc2)cc1 [Compound 522, 1-(4-isopropylphenyl)-3-(4-methoxyphenyl)urea] | < 2000 nM |
| Cc1ccc(NC(=O)Nc2cccc(F)c2)cc1Cl [Compound 433, 1-(3-chloro-4-methylphenyl)-3-(3-fluorophenyl)urea] | < 2000 nM |
| O=C(Nc1ccc(F)cc1)Nc1cccc(OC(F)F)c1 [Compound 372, 1-[3-(difluoromethoxy)phenyl]-3-(4-fluorophenyl)urea] | < 2000 nM |
| CCCOc1ccc(NC(=O)Nc2ccc(OC(F)(F)F)cc2)cc1 [Compound 535, 1-(4-propoxyphenyl)-3-[4-(trifluoromethoxy)phenyl]urea] | < 2000 nM |
| COCc1ccc(NC(=O)Nc2ccc(Cl)cc2)cc1 [Compound 395, 1-(4-chlorophenyl)-3-[4-(methoxymethyl)phenyl]urea] | < 2000 nM |
| N#CCOc1ccc(NC(=O)Nc2ccc(F)c(F)c2)cc1 [Compound 732, 1-[4-(cyanomethoxy)phenyl]-3-(3,4-difluorophenyl)urea] | < 2000 nM |
| CCOc1ccc(NC(=O)Nc2ccc(Cl)c(C(F)(F)F)c2)cc1 [Compound 625, 1-[4-chloro-3-(trifluoromethyl)phenyl]-3-(4-ethoxyphenyl)urea] | < 2000 nM |
| CC(C)OC(=O)c1ccc(NC(=O)Nc2cccc(F)c2)cc1 [Compound 479, isopropyl 4-({[(3-fluorophenyl)amino]carbonyl}amino)benzoate] | < 2000 nM |
| CCCOc1ccc(NC(=O)Nc2cccc(C(C)=O)c2)cc1 [Compound 416, 1-(3-acetylphenyl)-3-(4-propoxyphenyl)urea] | < 2000 nM |
| CCCc1ccccc1NC(=O)Nc1cccc(OC(F)F)c1 [Compound 578, 1-[3-(difluoromethoxy)phenyl]-3-(2-propylphenyl)urea] | < 2000 nM |
| CC(C)Oc1ccc(NC(=O)Nc2ccccc2)cc1 [Compound 375, 1-(4-isopropoxyphenyl)-3-phenylurea] | < 2000 nM |
| COC(=O)c1cccc(NC(=O)Nc2ccc(C)c(Cl)c2)c1 [Compound 769, methyl 3-({[(3-chloro-4-methylphenyl)amino]carbonyl}amino)benzoate] | < 2000 nM |
| CC(=O)c1ccc(NC(=O)Nc2ccc(C(=O)OC(C)C)cc2)cc1 [Compound 514, isopropyl 4-({[(4-acetylphenyl)amino]carbonyl}amino)benzoate] | < 2000 nM |

Same assay, conditions: Table I; IC50 at CB1, GTP binding with 1 nM CP55,940; read-out: IC50

| IC50 | Structure (SMILES) |
| --- | --- |
| < 2000 nM | CCc1ccc(NC(=O)Nc2ccc(Cl)cc2)cc1 [Compound 25, N-(4-chlorophenyl)-N′-(4-ethylphenyl)urea] |
| < 2000 nM | CCc1ccc(NC(=O)Nc2ccc(OC(F)F)cc2)cc1 [Compound 5, N-[4-(difluoromethoxy)phenyl]-N′-(4-ethylphenyl)urea] |
| < 2000 nM | CCc1ccc(NC(=O)Nc2cccc(C(C)=O)c2)cc1 [Compound 56, N-(3-acetylphenyl)-N′-(4-ethylphenyl)urea] |
| < 2000 nM | CCc1ccc(NC(=O)Nc2ccc(O)cc2)cc1 [Compound 29, N-(4-ethylphenyl)-N′-(4-hydroxyphenyl)urea] |
| < 2000 nM | O=C(Nc1ccc(OC(F)F)cc1)Nc1cccc(OCCO)c1 [Compound 14, N-[4-(difluoromethoxy)phenyl]-N′-[3-(2-hydroxyethoxy)phenyl]urea] |

Same assay, conditions: Table II; IC50 at CB1, GTP binding with 1 nM CP55,940; read-out: IC50

| IC50 | Structure (SMILES) |
| --- | --- |
| < 2000 nM | CCc1cccc(NC(=O)Nc2ccc(OC(C)C)cc2)c1 [Compound 249, N-(3-ethylphenyl)-N′-(4-isopropoxyphenyl)urea] |
| < 2000 nM | CC(=O)c1ccc(NC(=O)Nc2cccc(F)c2)cc1 [Compound 188, N-(4-acetylphenyl)-N′-(3-fluorophenyl)urea] |
| < 2000 nM | COCc1ccc(NC(=O)Nc2ccc(C(C)=O)cc2)cc1 [Compound 271, N-(4-acetylphenyl)-N′-[4-(methoxymethyl)phenyl]urea] |
| < 2000 nM | COc1cc(NC(=O)Nc2ccc(OC(F)F)cc2)ncn1 [Compound 79, N-[4-(difluorornethoxy)phenyl]-N′-(6-methoxypyrimidin-4-yl)urea] |
| < 2000 nM | O=C(Nc1ccc(OC(F)F)cc1)Nc1ccc2[nH]ncc2c1 [Compound 133] |
| < 2000 nM | O=C(Nc1cccc(F)c1)Nc1cccc(OC(F)F)c1 [Compound 219, N-[3-(difluoromethoxy)phenyl]-N′-(3-fluorophenyl)urea] |

Continued, compound first:

| Structure (SMILES) | IC50 |
| --- | --- |
| Cc1ccc(NC(=O)Nc2ccc(C)cc2)cc1 [Compound 171, N,N′-bis(4-methylphenyl)urea] | < 2000 nM |
| CCCOc1ccc(NC(=O)Nc2ccc(Cl)cc2)cc1 [Compound 245, N-(4-chlorophenyl)-N′-(4-propoxyphenyl)urea] | < 2000 nM |
| COc1cc(NC(=O)Nc2ccc(OC(F)F)cc2)cc(OC)c1 [Compound 91, N-[4-(difluoromethoxy)phenyl]-N′-(3,5-dimethoxyphenyl)urea] | < 2000 nM |
| CC(=O)c1ccc(NC(=O)Nc2cccc(OC(F)F)c2)cc1 [Compound 286, N-(4-acetylphenyl)-N′-[3-(difluoromethoxy)phenyl]urea] | < 2000 nM |
| CC(=O)c1ccc(NC(=O)Nc2ccc(OC(C)C)cc2)cc1 [Compound 282, N-(4-acetylphenyl)-N′-(4-isopropoxyphenyl)urea] | < 2000 nM |
| CCCc1ccc(NC(=O)Nc2cccc(F)c2)cc1 [Compound 177, N-(3-fluorophenyl)-N′-(4-propylphenyl)urea] | < 2000 nM |
| CCCOc1ccc(NC(=O)Nc2cccc(C#N)c2)cc1 [Compound 273, N-(3-cyanophenyl)-N′-(4-propoxyphenyl)urea] | < 2000 nM |
| CCc1ccc(NC(=O)Nc2cccc(-c3ccc(Cl)cn3)c2)cc1 [Compound 75, N-[3-(5-chloropyridin-2-yl)phenyl]-N′-(4-ethylphenyl)urea] | < 2000 nM |
| O=C(Nc1ccc(OC(F)F)cc1)Nc1cccc(-c2cnc3ccccc3c2)c1 [Compound 69, N-[4-(difluoromethoxy)phenyl]-N′-(3-quinolin-3-ylphenyl)urea] | < 2000 nM |
| CCc1ccc(NC(=O)Nc2cccc(CC)c2)cc1 [Compound 179, N-(3-ethylphenyl)-N′-(4-ethylphenyl)urea] | < 2000 nM |
| CCOc1ccc(NC(=O)Nc2ccc(C#N)cc2)cc1 [Compound 264, N-(4-cyanophenyl)-N′-(4-ethoxyphenyl)urea] | < 2000 nM |
| COc1ccc(C(F)(F)F)c(-c2cccc(NC(=O)Nc3ccc(OC(F)F)cc3)c2)n1 [Compound 121, N-[4-(difluoromethoxy)phenyl]-N′-{3-[6-methoxy-3-(trifluoromethyl)pyridin-2-yl]phenyl}urea] | < 2000 nM |
| O=C(Nc1ccccc1)Nc1ccc2c(c1)CCC2 [Compound 161, N-(2,3-dihydro-1H-inden-5-yl)-N′-phenylurea] | < 2000 nM |
